What was measured:
[1] = Relative stability of forms A and B by vapour diffusion experiment (XRPD); format: physicochemical; conditions: NMP vapour, room temperature; for relative stability of the polymorphs: intimate mixture of forms A and B, followed by XRPD
Procedure: The relative stabilities of the forms A and B was determined by a vapour diffusion experiment. Approximately equal amounts of the two forms were ground together to produce an intimate mixture. The mixture was packed into a silicon 510-cut recessed wafer XRPD holder and the XRPD of the mixture determined. The holder was then placed in a covered dish containing NMP (a known solvent 1) at room temperature. The mixture was re-examined from time to time to monitor any changes in the XRPD pattern.
The traces from bottom to top in FIG. 8 were recorded initially, at 24 hours, at 3 days, at 1 week, at 10 days, and at 23 days; the topmost traces are a form A reference and a form B reference.

[2] = test system: cataleptic responses; conditions: cited from earlier work
[3] = Relative stability of forms D and H by vapour diffusion experiment (XRPD); format: physicochemical; conditions: inferred from the higher desolvation temperature, XRPD results inconclusive
From the text: The relative stabilities of Forms D and H was investigated by a vapour diffusion experiment. Approximately equal amounts of the two forms were combined to produce an intimate mixture. The mixture was packed into a silicon XRPD holder and the XRPD of the mixture determined. The holder was then placed in a covered dish containing THF:NMP approx. 90:10 v/v at room temperature. The mixture was re-examined from time to time to monitor any changes in the XRPD pattern.
There was been no significant change in the XRPD traces over 12 days.

[4] = test system: Parkinsonian patients; conditions: cited from earlier work

With `Cc1cc(Cn2nnc3c(-c4ccco4)nc(N)nc32)ccc1N` [Form B, 3-(4-amino-3-methylbenzyl)-7-(furan-2-yl)-3H-[1,2,3]triazolo[4,5-d]pyrimidin-5-amine] the “time point by which the XRPD peaks characteristic of Form B disappear completely” value ([1]; mixture of forms A and B) was no more than 23 days.
In the case of `CCCn1c(=O)c2c(nc(/C=C/c3ccc(OC)c(OC)c3)n2C)n(CCC)c1=O` [KF 17837, E-8-(3,4dimethoxystyryl)-1,3-dipropyl-7-methylxanthine], the “anticataleptic effects of a subthreshold dose of L-DOPA plus benserazide” value ([2]; in vivo) is listed as “potentiated”, the “catalepsy induced by haloperidol and reserpine” value ([2]; in vivo) is listed as “reduced” and the “cataleptic responses induced by intracerebroventricular CGS 21680” value ([2]; oral administration) is listed as “significantly ameliorated”.
With `Cc1cc(Cn2nnc3c(-c4ccco4)nc(N)nc32)ccc1N` [Form H, 3-(4-amino-3-methylbenzyl)-7-(furan-2-yl)-3H-[1,2,3]triazolo[4,5-d]pyrimidin-5-amine] the “relative stability of the THF solvates” value [3] was “more likely to be the stable form”.
For `Cn1c(=O)c2[nH]cnc2n(C)c1=O` [theophylline, 1,3-dimethylxanthine], the “mean objective disability scores” value ([4]; 15 Parkinsonian patients, up to 12 weeks, 150 mg/day) is listed as “significant improvements”, the “patients reporting moderate or marked subjective improvement” value ([4]; of 15 Parkinsonian patients, up to 12 weeks, 150 mg/day) is listed as 11 and the serum theophylline levels ([4]; slow release oral preparation 150 mg/day, after one week) is listed as 4.44 mg/L.
With `Cc1cc(Cn2nnc3c(-c4ccco4)nc(N)nc32)ccc1N` [Form A, 3-(4-amino-3-methylbenzyl)-7-(furan-2-yl)-3H-[1,2,3]triazolo[4,5-d]pyrimidin-5-amine] the “relative stability of the polymorphs” value [1] was “more stable polymorph” and the “relative stability of the polymorphs” value ([1]; listed as form A) was “more thermodynamically more stable”.
